In one assay the target is T1, HCMV UL50-UL53 (Human cytomegalovirus, UniProt P16794).
T1 construct: GST (N, cleaved yes); 13-residue glycine-serine linker […]; made in house; host or cells: E. coli BL21 (DE3) RIPL
In words: biochemical. The format is binding. Conditions: for scoring as a hit in the HTRF screen: hit = at least 50 percent inhibition of HTRF signal, ibrutinib up to 50 μM.

In assay [1] the target is T2, HSV-1 P30-UL42 (Human herpesvirus 1, UniProt P10226).
T2 construct: containing UL42 residues 1–340; GST (N); glycine-serine linker of the modified pGEX6p plasmid (presence inferred) (N); made in house; host or cells: E. coli (UL42: pLysS BL21)
Nature of the assay: biochemical. Type of assay: binding.

The target of assay [2] is T3, HSV-1 P30-UL42 (Human herpesvirus 1, UniProt P10226).
T3 construct: containing UL42 residues 1–340; GST (N); glycine-serine linker of the modified pGEX6p plasmid (presence inferred) (N); made in house; host or cells: E. coli (UL42: pLysS BL21)
T3 sequence (P10226 whole entry, looked up): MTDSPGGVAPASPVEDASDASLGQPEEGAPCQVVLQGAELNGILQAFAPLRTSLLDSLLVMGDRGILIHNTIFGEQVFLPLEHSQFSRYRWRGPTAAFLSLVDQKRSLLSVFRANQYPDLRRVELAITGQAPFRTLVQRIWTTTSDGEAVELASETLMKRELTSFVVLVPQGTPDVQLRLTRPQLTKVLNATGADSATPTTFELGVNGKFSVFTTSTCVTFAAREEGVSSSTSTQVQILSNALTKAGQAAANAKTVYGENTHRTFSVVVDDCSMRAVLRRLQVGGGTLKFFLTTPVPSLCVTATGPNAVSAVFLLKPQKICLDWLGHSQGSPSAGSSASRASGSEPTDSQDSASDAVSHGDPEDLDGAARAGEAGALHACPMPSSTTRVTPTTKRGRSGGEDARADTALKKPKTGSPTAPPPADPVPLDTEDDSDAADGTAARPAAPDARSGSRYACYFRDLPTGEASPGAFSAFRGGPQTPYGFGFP
In words: biochemical. Type of assay: binding. This is another data set of the same source.

In assay [3] the target is T4, His-SUMO-tagged HSV-1 UL42 (residues 1-340) (herpes simplex virus 1 (HSV-1), UniProt P10226 1-340).
T4 construct: also called His-SUMO-UL42; His-tagged HSV-1 UL42; source: E. coli pLysS BL21, purified as described for the HCMV NEC proteins
T4 sequence: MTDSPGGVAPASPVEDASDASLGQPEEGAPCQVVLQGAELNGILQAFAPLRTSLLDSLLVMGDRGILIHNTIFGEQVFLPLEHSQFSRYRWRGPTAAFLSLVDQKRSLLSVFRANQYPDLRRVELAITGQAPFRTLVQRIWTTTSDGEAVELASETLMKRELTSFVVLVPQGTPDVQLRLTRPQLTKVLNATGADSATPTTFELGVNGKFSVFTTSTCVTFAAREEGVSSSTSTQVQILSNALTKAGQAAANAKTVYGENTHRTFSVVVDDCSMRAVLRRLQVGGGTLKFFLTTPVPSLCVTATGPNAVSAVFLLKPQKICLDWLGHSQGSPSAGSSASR
In words: AlphaScreen or HTRF. Conditions: both partners purified.

In assay [4] the target is T5, Myc-tagged HCMV UL53 (residues 50-292) (human cytomegalovirus (HCMV), UniProt P16794 50-292).
T5 construct: source: E. coli BL21 (DE3) RIPL, purified (glutathione-agarose, on-column PreScission digestion, size exclusion chromatography); not shown: GST, N-terminal, cleaved; Myc, N-terminal, kept
T5 sequence: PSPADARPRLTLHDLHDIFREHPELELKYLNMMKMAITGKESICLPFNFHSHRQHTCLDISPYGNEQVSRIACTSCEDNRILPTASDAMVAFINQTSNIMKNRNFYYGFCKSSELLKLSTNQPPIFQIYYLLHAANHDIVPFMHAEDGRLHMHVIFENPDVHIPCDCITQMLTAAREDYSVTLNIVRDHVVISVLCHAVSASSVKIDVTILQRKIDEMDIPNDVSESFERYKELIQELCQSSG
Nature of the assay: AlphaScreen or HTRF. Conditions: both partners purified.

Assay [5] deals with T6, His-tagged HCMV UL50 (residues 1-169) (human cytomegalovirus (HCMV), UniProt P16791 1-169).
T6 construct: also called His-UL50; tagged UL50; source: E. coli BL21 (DE3) RIPL, purified (nickel Sepharose, size exclusion chromatography); not shown: His, N-terminal, kept
T6 sequence: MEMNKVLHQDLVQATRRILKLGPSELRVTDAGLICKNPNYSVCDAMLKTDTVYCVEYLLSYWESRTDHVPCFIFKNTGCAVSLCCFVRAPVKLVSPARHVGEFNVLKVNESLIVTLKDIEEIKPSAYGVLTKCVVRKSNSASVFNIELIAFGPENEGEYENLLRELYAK
Nature of the assay: AlphaScreen or HTRF. Conditions: both partners purified.

Setting [6] is: LINCS2 well 2, 10 μM in the assay.
The mark [7] stands for this setting: LINCS2 well 4, 0.4 μM in the assay.
The mark [8] stands for this setting: Selleck well, 50 μM in the assay.

“And” between values parts separate entries of the source, which are not always exact repeats. Equal values may be shown once.

In the case of `C=CC(=O)N1CCC[C@@H](n2nc(-c3ccc(Oc4ccccc4)cc3)c3c(N)ncnc32)C1` [ibrutinib, reference compound], the “HTRF Channel 2 (620 nm)” value on HCMV UL50-UL53 (LINCS2 well 1, 50 μM in the assay) is 5736 and 5840; at HCMV UL50-UL53 (setting [6]) it was 5859 and 6111; at HCMV UL50-UL53 (LINCS2 well 3, 2 μM in the assay), 6125 and 5780; on HCMV UL50-UL53 (setting [7]), 5791 and 5828; on HCMV UL50-UL53 (setting [8]), 8631 and 9073. For the same molecule, the “HTRF Channel 1 (665 nm)” value at HCMV UL50-UL53 (setting [6]) was 31679; on HCMV UL50-UL53 (setting [7]), 31815; on HCMV UL50-UL53 (setting [8]), 7468 and 7529. For the same molecule, the “inhibition in HTRF screen” value at HCMV UL50-UL53 (LINCS wells, 50, 10, 2 and 0.4 μM) was “Essentially no inhibition”. For the same molecule, the “scoring as a hit in the HTRF screen” value on HCMV UL50-UL53 is “not registering as a hit”.

With `CCC(=O)Nc1cccc(Oc2ccnc3[nH]ccc23)c1` [aGK2], the “activity in the HTRF assay for NEC interactions” value at HCMV UL50-UL53 was “little, if any activity”. Moreover, the remaining activity at 1.56 µM was found to be 95% at HCMV UL50-UL53 (WT UL50-UL53, 1.56 μM compound, replicates, read-out: normalized FRET signal relative to control without inhibitor) and 101% on HSV-1 P30-UL42 [1] (HSV1 P30-UL42, 1.56 μM compound, replicates, read-out: normalized FRET signal relative to control without inhibitor). For the same molecule, the remaining activity at 3.13 µM stood at 95% at HCMV UL50-UL53 (WT UL50-UL53, 3.13 μM compound, replicates, read-out: normalized FRET signal relative to control without inhibitor) and 102% on HSV-1 P30-UL42 [1] (HSV1 P30-UL42, 3.13 μM compound, replicates, read-out: normalized FRET signal relative to control without inhibitor). For the same molecule, the remaining activity at 6.25 µM on HCMV UL50-UL53 (WT UL50-UL53, 6.25 μM compound, replicates, read-out: normalized FRET signal relative to control without inhibitor) came out at 92%; on HSV-1 P30-UL42 [1] (HSV1 P30-UL42, 6.25 μM compound, replicates, read-out: normalized FRET signal relative to control without inhibitor) it was 99%. In addition, the remaining activity at 50 µM at HCMV UL50-UL53 (WT UL50-UL53, 50.00 μM compound, replicates, read-out: normalized FRET signal relative to control without inhibitor) stood at 93%; at HSV-1 P30-UL42 [1] (HSV1 P30-UL42, 50.00 μM compound, replicates, read-out: normalized FRET signal relative to control without inhibitor), 97%. Moreover, the remaining activity at 25 µM on HCMV UL50-UL53 (WT UL50-UL53, […] compound, replicates, read-out: normalized FRET signal relative to control without inhibitor) is 94%; on HSV-1 P30-UL42 [1] (HSV1 P30-UL42, […] compound, replicates, read-out: normalized FRET signal relative to control without inhibitor), 99%. Further, the “inhibition in the HSV-1 P30-UL42 counterscreen assay” value at HSV-1 P30-UL42 [1] (all concentrations tested (up to 50 μM)) was “little, if any activity”.

With `O=C([O-])c1ccccc1-c1c2cc(Br)c(=O)cc-2oc2[c]([Hg+])c([O-])c(Br)cc12.[Na+].[Na+].[OH-]` [merbromin, reference compound], the “scoring as a hit in the HTRF screen” value at HCMV UL50-UL53 is recorded as “scored negative”.

For “Untagged P30: untagged C-terminal 36 residues of HSV-1 UL30 (DDVAARLRAAGFGAVGAGATAEETRRMLHRAFDTLA) [reference compound]”, the HTRF ratio with HSV-1 P30-UL42 [2] (P30-UL42 + untagged protein, A665nm/A620nm * 10000, single replicates) is 26529 and 26670 and 27659. The “HTRF ratio, Mean” value with HSV-1 P30-UL42 [2] (P30-UL42 + untagged protein, triplicate) turned out to be 26953. Also, the S/B with HSV-1 P30-UL42 [2] (P30-UL42 with untagged protein) is given as 2.4.

B1: Myc-tagged HSV-1 Pol C-terminal peptide P30 (UL30 residues 1200-1235) (peptide)
chain: GGGGSGGGGSGGGDDVAARLRTAGFGAVGAGATAEETRRMLHRAFDTLA
notes: source: E. coli, expressed and purified as described for Myc-UL53; not shown: Myc, N-terminal, kept
For B1, the binding result in assay [3] is recorded as “binds”.

B2: His-tagged HCMV UL50 (residues 1-169) (domain or fragment)
chain: MEMNKVLHQDLVQATRRILKLGPSELRVTDAGLICKNPNYSVCDAMLKTDTVYCVEYLLSYWESRTDHVPCFIFKNTGCAVSLCCFVRAPVKLVSPARHVGEFNVLKVNESLIVTLKDIEEIKPSAYGVLTKCVVRKSNSASVFNIELIAFGPENEGEYENLLRELYAK
notes: also called His-UL50; source: E. coli BL21 (DE3) RIPL, purified (nickel Sepharose, size exclusion chromatography); not shown: His, N-terminal, kept
Take B2: the Kd in assay [4] is 220 nM and 380 nM.

B3: His-tagged HCMV UL50 (residues 1-169) C79S (domain or fragment)
chain: MEMNKVLHQDLVQATRRILKLGPSELRVTDAGLICKNPNYSVCDAMLKTDTVYCVEYLLSYWESRTDHVPCFIFKNTGSAVSLCCFVRAPVKLVSPARHVGEFNVLKVNESLIVTLKDIEEIKPSAYGVLTKCVVRKSNSASVFNIELIAFGPENEGEYENLLRELYAK
notes: source: E. coli BL21 (DE3) RIPL, purified (same methods as His-UL50); not shown: His, N-terminal, kept
Consider B3, for which the dissociation constant Kd in assay [4] was 230 nM and 450 nM.

B4: His-tagged HCMV UL50 (residues 1-169) C54S (domain or fragment)
chain: MEMNKVLHQDLVQATRRILKLGPSELRVTDAGLICKNPNYSVCDAMLKTDTVYSVEYLLSYWESRTDHVPCFIFKNTGCAVSLCCFVRAPVKLVSPARHVGEFNVLKVNESLIVTLKDIEEIKPSAYGVLTKCVVRKSNSASVFNIELIAFGPENEGEYENLLRELYAK
notes: as for B3
Turning to B4, the Kd in assay [4] was 140 nM and 340 nM.

B5: His-tagged HCMV UL50 (residues 1-169) C35N (domain or fragment)
chain: MEMNKVLHQDLVQATRRILKLGPSELRVTDAGLINKNPNYSVCDAMLKTDTVYCVEYLLSYWESRTDHVPCFIFKNTGCAVSLCCFVRAPVKLVSPARHVGEFNVLKVNESLIVTLKDIEEIKPSAYGVLTKCVVRKSNSASVFNIELIAFGPENEGEYENLLRELYAK
notes: as for B3
In the case of B5, the Kd in assay [4] was 110 nM and 190 nM.

B6: Myc-tagged HCMV UL53 (residues 50-292) with glycine-serine linker (domain or fragment)
chain: GGGGSGGGGSGGGPSPADARPRLTLHDLHDIFREHPELELKYLNMMKMAITGKESICLPFNFHSHRQHTCLDISPYGNEQVSRIACTSCEDNRILPTASDAMVAFINQTSNIMKNRNFYYGFCKSSELLKLSTNQPPIFQIYYLLHAANHDIVPFMHAEDGRLHMHVIFENPDVHIPCDCITQMLTAAREDYSVTLNIVRDHVVISVLCHAVSASSVKIDVTILQRKIDEMDIPNDVSESFERYKELIQELCQSSG
notes: source: E. coli BL21 (DE3) RIPL, purified (glutathione-agarose, on-column PreScission digestion, size exclusion chromatography); not shown: GST, N-terminal, cleaved; Myc, N-terminal, kept
B6: the “HTRF ratio, fold over the background of either tagged subunit alone” value in assay [5] is approximately 3 fold.

The values are drawn from PMC10691697, “A small molecule exerts selective antiviral activity by targeting the human cytomegalovirus nuclear egress complex” (PLOS Pathogens, 2023).
